Source: PMC5641083, “Blockage of FOXP3 transcription factor dimerization and FOXP3/AML1 interaction inhibits T regulatory cell activity: sequence optimization of a peptide inhibitor” (Oncotarget, 2017)
Where two headings read alike, the source gives them in different places. Where a SMILES comes first, the peptide text is derived from it.

Key:
[1] = test system: FOXP3-6His (native FOXP3, 1-421); experiment: Surface plasmon resonance, peptide binding to FOXP3-coated chip; settings: for FOXP3 binding by SPR (in words): peptides at 2.5 μM, N-terminal acetylation and C-terminal amidation
Procedure: Using truncated versions of FOXP3, we attempted to identify the FOXP3 domain interacting with peptide P60, described previously by or group as a FOXP3 inhibitory peptide. Thus, besides native FOXP3 we prepared the deletion mutants FOXP3 (1-331) (lacking the C-terminus of FOXP3), FOXP3 (177-421) (lacking the N-terminus) and FOXP3 (1-177) (encompassing only the N-terminus of FOXP3) (Figure 1A). They were coated on a chip for SPR experiments.
Screening of peptide binding to FOXP3 was performed by surface plasmon resonance (SPR) using ProteOn XPR36 (Bio-Rad, Hercules CA, USA) optical biosensor. Recombinant protein FOXP3-6His and the indicated truncated versions of FOXP3 were produced and purified from E-coli and immobilized covalently onto a GLM sensor chip (Bio-Rad) using sulfo-NHS and EDC (Bio-Rad) coupling reagents. After protein immobilization, chip surface was treated with ethanolamine to deactivate the excess of reactive esters. Individual peptide solutions (1–20 μM) were injected by triplicate in running buffer (Phosphate buffered saline, 0.005% (v/v) Tween 20, pH 7.4) at a flow of 30 μl/min. The interspot signal (obtained in the chip surface not immobilized with protein) was used as reference.

[2] = biological target: T1, FOXP3/AML1 interaction (Homo sapiens, UniProt Q9BZS1); experiment: AlphaScreen FOXP3/AML1 heterodimerization assay; format: biochemical
T1 sequence (Q9BZS1 1-431): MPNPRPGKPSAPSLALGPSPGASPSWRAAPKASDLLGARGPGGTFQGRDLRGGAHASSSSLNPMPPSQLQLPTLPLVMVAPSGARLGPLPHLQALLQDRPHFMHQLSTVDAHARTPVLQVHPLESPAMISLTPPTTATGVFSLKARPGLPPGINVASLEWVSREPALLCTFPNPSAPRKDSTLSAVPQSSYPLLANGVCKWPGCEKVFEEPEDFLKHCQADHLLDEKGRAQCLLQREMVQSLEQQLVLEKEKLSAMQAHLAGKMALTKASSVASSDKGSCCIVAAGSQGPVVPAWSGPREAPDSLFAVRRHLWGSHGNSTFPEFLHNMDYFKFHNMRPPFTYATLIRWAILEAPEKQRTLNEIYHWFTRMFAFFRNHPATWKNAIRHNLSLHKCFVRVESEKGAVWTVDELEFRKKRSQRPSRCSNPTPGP
Source text: (§1) AML1 is required for IL-2 and IFN-γ gene expression in conventional CD4+ T cells and its interaction with FOXP3 is needed for the immunosuppressive activity of Tregs. On the other hand, it has been described that the leucine zipper region is necessary and sufficient to mediate FOXP3 homo-dimerization, which is required for its function as a transcriptional regulator [13, 15, 20]. Thus, since P60 binds to this FOXP3 intermediate region, we analyzed if it could act as a decoy molecule to inhibit FOXP3 homodimerization or the FOXP3-AML1 heterodimerization. The capacity of FOXP3 to homodimerize was measured using the […] assay platform AlphaScreen™ (Perkin Elmer). Previous protein-cross titration experiment using different concentrations of FOXP3-6His (from 1000 to 0 nM) and GST-FOXP3 (from 300 to 0 nM) allowed us to define the optimal protein concentrations to analyze FOXP3 homodimerization (Figure 2A). […] We also tested if GST tagged FOXP3 was able to interact with AML1 protein tagged with 6 His at the N-terminus. As shown in the cross titration experiments in Figure 2C, a specific FOXP3-AML1 heterodimerization was visualized as an increase in the AlphaScreen signal.
(§2) FOXP3/AML1 heterodimerization, as well as FOXP3/FOXP3 homodimerization were analyzed by Alphascreen technology according to the manufacturer's instructions (Perkin Elmer, Benelux) as previously described.

[3] = test system: murine Treg cells; format: cell-based, BALB/c mice
Source text: Results shown in Figures 1–3 correspond to cell-free assays where peptides can interact directly with its corresponding protein partner. However, FOXP3 binding peptides need to enter into the cell in order to inhibit FOXP3 functions. Once we identified some mutants with higher capacity to bind FOXP3, we studied their capacity to inhibit the suppressor activity of natural Tregs in vitro. Thus, we activated effector T cells with anti-CD3 monoclonal antibody in the presence of Tregs, and analyzed the capacity of each peptide to restore T cell proliferation inhibited by Treg cells. […] Indeed, when results from the point-variant screening are represented as a heat map, it is clear that introduction of an alanine at positions 2, 5 and 11 improved activity of the original P60, whereas alanine mutations at positions 1, 7, 8, 9, 10 and 12 are detrimental (Figure 4C).
Isolation of murine CD4^+CD25^+, and CD4^+CD25^− T-cells was performed from murine spleen cells by using murine regulatory T-cell isolation kit (Miltenyi Biotec, Bergisch Gladbach, Germany) according to manufacturer's instructions. The purity of the resulting T-cell populations was confirmed to be > 95% by flow cytometry.
Inhibition of murine T regulatory cell function was measured in an in vitro assay of T-cell stimulation. CD25+ depleted spleen cells (10^5 cells/well) from BALB/c mice were stimulated in vitro with 2, 5 μg/ml of anti-mouse CD3 antibody (Pharmingen) in the presence/absence of purified Treg cells (10^4 cells/well). T-cell proliferation was measured 3 days later as previously described.

[4] = biological target: T2, FOXP3/FOXP3 homodimerization (GST-FOXP3 and FOXP3-His) (Homo sapiens, UniProt Q9BZS1); experiment: AlphaScreen FOXP3 homodimerization assay; format: biochemical; settings: GST-FOXP3 40 nM, FOXP3-His 300 nM
T2 construct: made in house; host or cells: E. coli
T2 sequence (Q9BZS1 1-421): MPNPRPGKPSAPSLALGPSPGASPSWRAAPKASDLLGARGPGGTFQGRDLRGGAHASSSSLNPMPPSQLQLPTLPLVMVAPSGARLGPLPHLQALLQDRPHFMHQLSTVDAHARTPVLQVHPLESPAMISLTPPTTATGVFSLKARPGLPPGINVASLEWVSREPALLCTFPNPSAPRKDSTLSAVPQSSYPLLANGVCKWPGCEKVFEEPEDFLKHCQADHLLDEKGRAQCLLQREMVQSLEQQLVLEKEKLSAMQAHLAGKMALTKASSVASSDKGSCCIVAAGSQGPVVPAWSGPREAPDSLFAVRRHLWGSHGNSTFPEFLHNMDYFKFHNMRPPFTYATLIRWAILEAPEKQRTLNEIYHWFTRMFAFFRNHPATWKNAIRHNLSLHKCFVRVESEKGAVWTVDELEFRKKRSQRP
Source text: as §1, §2

[5] = Metabolic stability in human liver microsomes; format: in vitro ADME; settings: 1 μM, estimated by first order kinetics
Procedure: (§3) Metabolic stability was measured by Wuxi AppTech (Shanghai, China). Briefly, peptides (1 μM, 5% MeOH in potassium phosphate buffer) were incubated with human (catalogue no. 452161 from BD Gentest) and mouse (catalogue no. M1000, Xenotech) liver microsomes at 37°C for 10 min. Liver microsomes were at a final assay concentration of 0.7 mg protein/mL. The reaction was started by the addition of 90 μL of NADP cofactor solution and stopped by the addition of 300 μL of stop solution (acetonitrile at 4°C, including 100 ng/mL tolbutamide as an internal standard) after 20 min of incubation. The samples were shaken for 5 min and then centrifuged for 20 min at 1500 g. A 100 μL aliquot of the supernatant was transferred to eight new 96-well plates with 300 μL of HPLC water and centrifuged at 1500 g for LC-MS/MS analysis (Shimadzu LC 10-AD−API 4000). An injection volume of 10 μL was added to a Phenomenex Synergi C18 column eluting with formic acid in water or acetonitrile at a flow rate of 800 μL/min. The percent loss of parent compound was calculated from the peak area ratio of the analyte/internal standard. Compounds and positive controls were tested in duplicate.

[6] = Metabolic stability in mouse liver microsomes; format: in vitro ADME; settings: 1 μM, estimated by first order kinetics
Procedure: as §3

[7] = test system: Hepa-129 cells; experiment: Hepa-129 subcutaneous tumor rejection model; format: in vivo, C3H/HeN mice; settings: Hepa-129 s.c.
Procedure: Seven days after Hepa-129 cells injection, when the tumor reached 5 mm in diameter, mice were treated with CM-1215 (from days 7 to 16, 50μg/day/mouse) or anti-PD1 antibodies (50 μg/mice) at days 7 and 14. A group of mice treated with anti-PD1 received also 10 consecutive i.p. administrations of CM-1215 from days 7 to 16 (50 μg/day/mouse).
For tumor rejection experiments, Hepa-129 cells (10^6 cells/mouse), were injected subcutaneously (sc) in C3H/HeN mice (n = 6). Ten days later, when the tumor reached 5 mm in diameter, mice were randomly divided into different experimental groups. A group of mice were treated i.p. with anti-PD1 antibodies (50 μg/mouse). Antibody administration was repeated one week after this first administration. A group of mice treated with anti-PD1 also received the cyclic peptide CM-1215 from days 10 to 20 (50 μg/mice/day). Tumor size, presented as the average of two perpendicular diameters (millimetres), was measured at regular intervals. Mice were sacrificed when the mean tumor diameter was greater than 20 mm. […] Tumor size was monitored twice a week with a calliper and it was expressed according to the formula V = (length × width^2)/2. […]

Row | Molecule | FOXP3 binding by SPR (in words) [1] | Inhibition of FOXP3-AML1 heterodimerization (in words) [2] | IC50 [3] | Inhibition of FOXP3 homodimerization (in words) [4] | IC50 ([3]; in vitro cell based bioassay, read-out: IC50 to inhibit Treg activity) | FOXP3 binding capacity by SPR (in words) ([1]; FOXP3 coated on chip, mutants compared with original P60) | T1/2 [5] | half-life [5] | half-life [6] | Antitumor effect / survival, single agent (in words) ([7]; CM-1215 50μg/day/mouse i.p. days 7 to 16, anti-PD1 50 μg/mice days 7 and 14) | Antitumor activity in combination with anti-PD1 (in words) ([7]; anti-PD1 50 μg days 7 and 14 plus CM-1215 50 μg/day/mouse i.p. days 7 to 16, p < 0.001)
1 | Ac-RAFQAFRKMWAFFAM-NH2 [P60-D2A-S5A-P11A] | improved very significantly the FOXP3 binding capacity | significantly improved the capacity of the original P60 peptide to inhibit this interaction | 2950 nM | – | – | – | – | – | – | – | –
2 | H-RAFQSFRKMWPFFAM-OH [P60-D2A] | – | inhibited | – | inhibited | 27200 nM | – | – | – | – | – | –
3 | CSCC[C@@H]1NC(=O)[C@H](C)NC(=O)[C@H](Cc2ccccc2)NC(=O)[C@H](Cc2ccccc2)NC(=O)[C@@H]2CCCN2C(=O)[C@H](Cc2c[nH]c3ccccc23)NC(=O)[C@H](CCSC)NC(=O)[C@H](CCCCN)NC(=O)[C@H](CCCNC(=N)N)NC(=O)[C@H](Cc2ccccc2)NC(=O)[C@H](C)NC(=O)[C@H](CCC(N)=O)NC(=O)[C@H](Cc2ccccc2)NC(=O)[C@H](C)NC(=O)[C@H](CCCNC(=N)N)NC1=O [CM-1215] (cyclo(RAFQAFRKMWPFFAM)) | – | – | 770 nM | – | – | improved very significantly its capacity to bind to FOXP3 | 5.30 min | ~8 min | ~8 min | some beneficial effect on the percentage of survival, this response did not reach statistical significance | exhibited antitumor activity
4 | Ac-RAFQAFRKMWPFFAM-NH2 [P60-D2A-S5A] | improved FOXP3 binding | significantly improved the capacity of the original P60 peptide to inhibit this interaction | 1890 nM | – | – | – | – | < 2.5 min | < 2.5 min | – | –
